Reference: patent publication US20180117644A1, “METHOD FOR WASHING SEVOFLURANE STORAGE CONTAINER AND METHOD FOR STORING SEVOFLURANE” (CENTRAL GLASS COMPANY, LIMITED, priority 2016, published 2018)
Read-outs that look alike come from different tables or passages of the source.

Legend:
[1] = Degradation of sevoflurane (severe testing) with alumina, gas chromatographic composition; type: physicochemical; conditions: sevoflurane with moisture 6 ppm, alumina 50 mg, 50° C., 64 hours, after third water washing
Protocol: In Example 1, sevoflurane was treated under conditions more stringent than actual sevoflurane storage conditions so that “polyether” was forcibly generated. Specifically, according to the disclosure of Patent Literature 5, the water content of sevoflurane was adjusted to be lower than that of sevoflurane obtained as a final product (6 ppm). Further, sevoflurane was heated to 50° C. under the presence of oxidized aluminium (alumina) serving as Lewis acid (i.e., a substance that is considered to catalyze sevoflurane degradation in Patent Literature 5). As a result, a portion of sevoflurane was degraded into polyether, resulting in generation of “sevoflurane containing polyether” in the system. It was attempted to wash the obtained “sevoflurane containing polyether” with water.
Sevoflurane (used as a pharmaceutical product) (100 cm^3) was placed in a erlenmeyer flask and cooled to 10° C. in a refrigerator. Then, synthetic zeolite was introduced into the erlenmeyer flask so that the weight ratio of synthetic zeolite:sevoflurane became 1:4. Next, the erlenmeyer flask was allowed to stand still in a refrigerator at 10° C. for 2 hours and 30 minutes for drying of sevoflurane (reduction of water content).
Alumina (50 mg) was placed in a 50-cm^3 brown bottle with a narrow mouth. Sevoflurane having a moisture content of 6 ppm prepared in (1-1) (20 cm^3, 29.9 g) was added thereto.
Next, the cap of the brown bottle with a narrow mouth was closed and the bottle was heated in a thermostatic bath at 50° C. for 64 hours. After heating for 64 hours, the bottle was cooled in a refrigerator (10° C.) for 1 hour.
As the sevoflurane obtained as a result of severe testing in (1-2) contained hydrogen fluoride (HF), water washing (back extraction of HF into an aqueous phase) was conducted for the ease of handling. Specifically, the sevoflurane subjected to severe testing and water (15 cm^3) were introduced into a separatory funnel made of tetrafluoroethylene, stirred for 1 minute, and allowed to stand still for 1 minute, followed by liquid separation. Then, the aqueous phase was collected and pH was checked using a pH test paper.
Meanwhile, after the third water washing, the gas chromatographic composition of the organic phase was detected as follows: sevoflurane: about 87%; polyether 1: 8.4% (84000 ppm); and polyether 2: 4.0% (40000 ppm). In addition, 190 ppm of hexafluoroisopropyl alcohol (HFIP) was detected.

[2] = cited from earlier work
[3] = Moisture content of liquid sevoflurane stored with dry nitrogen in autoclave (Karl Fischer); type: physicochemical
Protocol: A 1-dm^3 autoclave (SUS304) used as a sevoflurane storage container was filled with dry nitrogen. Liquid sevoflurane (i.e., a sevoflurane product containing 400 ppm of water) (30 g) was added thereto. The autoclave was hermetically closed and stored at room temperature for 1 month. Then, moisture content was measured using a Karl Fischer moisture meter. […] The liquid sevoflurane was stored for another month in the autoclave in the same manner. Then, the moisture content was measured again.

[4] = as disclosed in Patent Literature 5; cited from earlier work

gas chromatographic composition of the organic phase: polyether 1 [1]: 8.4% | gas chromatographic composition of the organic phase: polyether 2 [1]: 4.0% | gas chromatographic composition of the organic phase: sevoflurane [1]: about 87% | hexafluoroisopropyl alcohol (HFIP) detected in the organic phase [1]: 190 ppm | moisture content ([3]; product containing 400 ppm of water, 30 g in 1-dm^3 autoclave (SUS304) filled with dry nitrogen, room temperature, 1 month): 360 ppm | moisture content ([3]; same storage, another month (2 months in total)): 350 ppm
Structure (SMILES): FCOC(C(F)(F)F)C(F)(F)F [sevoflurane, Fluoromethyl-1,1,1,3,3,3-hexafluoroisopropyl ether]
vapor pressure ([2]; 25° C.): about 0.026 MPa | vapor pressure ([2]; 35° C.): about 0.041 MPa | vapor pressure ([2]; 45° C.): about 0.061 MPa | upper limit of the amount of water that can be mixed with sevoflurane [4]: about 1400 ppm
